Data published in patent US20020155172A1, “Methods and compounds for decreasing cell toxicity or death” (priority 2000, published 2002).

What was measured:
cells; primary neurons = experiment: Compound toxicity in cells; assay type: cell-based
[1] = system: neuroblastoma (SHSY) cells transfected with Q79-GFP; experiment: Expanded polyglutamine aggregation and cell death in neuroblastoma (SHSY) cells; assay type: cell-based; conditions: Congo red 1.5 to 100 nM
Method: Cells, including neuroblastoma cells, HeLa cells, primary neuronal cells, and primary embryonic neuronal cells were transiently transfected with the plasmid […]-GFP, encoding 79 glutamines followed by the jellyfish green fluorescent protein (Sanchez et al., supra). Expression of […]-GFP was observed 48 or 72 hours after transfection by visual inspection of GFP-positive cells using an inverted fluorescence microscope. In a cell expressing […]-GFP polypeptides, polyglutamine aggregates are formed and the cell dies by apoptosis (Sanchez, supra). Cell viability was determined by morphological criteria characteristic of apoptosis, including cell blebbing, shrinking. Total cell lysates and tissue homogenates were obtained using Buffer A: 1% triton in PBS, containing 10 μg/ml DNAse and protease inhibitors; leupeptin 20 μg/ml, aprotinin 20 u/ml, and PMSF 100 mM. […] These effects were determined by visual inspection of GFP-positive cells under an inverted fluorescence microscope. […] Cells expressing […]-GFP were incubated in cell culture media containing Congo red and evaluated for the effect of Congo red on polyglutamine aggregation and cell death. […] The cells were then scored the presence of visible oligomers by fluorescence microscopy. Cells in which oligomers were not detected at this level of resolution were scored as cells lacking polyglutamine aggregates. […]

Q79-GFP aggregates = experiment: Decrease of pre-formed Q79-GFP aggregates in vitro; assay type: biochemical
Method: Q79-GFP was expressed and purified from bacteria using standard molecular biology techniques. These fusion proteins form aggregates in vitro which can be viewed under an inverted fluorescence microscope. The Q79-GFP aggregates were administered Congo red (1 nM to 100 μM) and the ability of Congo red to decrease the aggregate was visually assessed.
This assay was also carried out on Q79-GFP aggregates that were administered compounds known to disrupt other types of aggregates, for example, beta-amyloid fibril aggregates. The Q79-GFP aggregates were administered Iota-carrageenan, dextran, minocycline, rolitetracycline, or Chrysamine G Congo red (100 μM each), and visually examined for the effect of each compound on disruption of the aggregate, as well as the density and size of the aggregates.

RIP, FADD, and Daxx = experiment: Apoptosis induced by overexpression of adapter proteins; assay type: cell-based
Method: FIG. 5G is a graph of the effects of Congo red on cell death induced by adapter protein oligomerization (Daxx, RIP, FADD).
(§1) HeLa cells expressing Q79 expanded polyglutamine repeats were treated with 100 μM Congo red, or 100 μM ZVAD (a positive control) for one hour prior to the addition of the apoptosis-inducing agent, and cell death was determined 48 hours later. […] Finally we tested whether Congo red can inhibit apoptosis induced by overexpression of caspase-1, -8, or -11.

caspase-1, -8, or -11 = experiment: Apoptosis induced by overexpression of caspases; assay type: cell-based
Method: FIG. 5H is a graph of the effects of Congo red on cell death induced by caspase over-expression(caspases-8, -1, or -11).
as §1

[2] = system: FADDdn, caspase-8dn, and HD exon-1 (Q25)-GFP; experiment: Recruitment of polyglutamine interacting proteins; assay type: cell-based; conditions: HeLa co-transfected with Q-79
Source text: FIG. 7A is a graph of the effect of Congo red or ZVAD on the recruitment of caspase-8, a death domain, or proteins containing short polyglutamine repeats by expanded polyglutamine oligomerization in cells transfected with a Q79-GFP expression construct and a caspase-8 (GFP-casp 8DN), death domain (GFP-FADD DN), or short polyglutamine (HD-1 (Q25)-GFP) protein recruitment.
We co-transfected HeLa cells with Q-79 and one of the following expression constructs, GFP-FADDdn (GFP fused to the death domain of FADD adapter protein, that generates a dominant negative FADD polypeptide (missing the first 80 amino acids of the full length protein)), GFP-caspase-8dn (GFP-tagged C360S mutant of caspase-8, generating a dominant negative caspase-8 polypeptide; Sanchez et al., supra), or GFP-exon-1 (Q25) (a GFP fusion construct containing the first exon of human huntingtin protein, encoding a 25 polyglutamine stretch; Kazantsev et al., Proc. Natl. Acad. Sci. USA 96:[…], 1999), in the presence of ZVAD or of Congo red (FIGS. 7A and B).

Structure (SMILES): Nc1c(/N=N/c2ccc(-c3ccc(/N=N/c4cc(S(=O)(=O)O)c5ccccc5c4N)cc3)cc2)cc(S(=O)(=O)O)c2ccccc12 [Congo red, diphenyldiazo-bis-alpha-napthylaminesulfonate]
- compound toxicity in cells (cells; primary neurons): not toxic even to primary neurons
- cell death [1]: significantly reduced cell death
- formation of polyglutamine aggregates [1]: inhibited the formation of polyglutamine aggregates
- decrease of pre-formed polyglutamine aggregates (Q79-GFP aggregates; 1 nM to 100 μM, visually assessed): decreased the pre-formed polyglutamine aggregates
- dissolution or disruption of pre-formed expanded polyglutamine repeat aggregates (Q79-GFP aggregates; 100 μM each, visually examined): dissolution or disruption of pre-formed expanded polyglutamine repeat aggregates were detected
- apoptosis induced by overexpression of RIP, FADD, or Daxx (RIP, FADD, and Daxx): had no effect on apoptosis induced by overexpression of RIP, FADD, or Daxx
- apoptosis induced by overexpression of caspase-1, -8, or -11 (caspase-1, -8, or -11): had no effect on caspase induced cell death
- recruitment of FADDdn, caspase-8dn, and HD exon-1 (Q25)-GFP [2]: decreased the concurrent recruitment of FADDdn, caspase-8dn, and HD exon-1 (Q25)-GFP
